From patent US12637461B2, “Compounds for the activation of AMPK” (PFIZER INC., priority 2022, dated 2026) come the findings set out here.

This experiment deals with T1, human AMPK α2β2γ3 (Homo sapiens, UniProt O43741+P54646+Q9UGI9).
T1 construct: expressed in transfected cells; host or cells: HEK293AD cells, MaxCyte bulk electroporation
As to the kind of experiment: Primary cellular assay: γ3 associated phospho-Thr172 AMPK detection (custom pAMPK Surefire AlphaLISA) in α2β2γ3 bulk transiently transfected HEK293 cells. The note with it: activation of human AMPK α2β2γ3 (γ3 pThr172 AMPK signal) in transiently transfected HEK293 cells, 20 minutes compound incubation; for Emax: 20 min, read-out: Assay GMean Asy. Max (%); for Emax / Assay GMean Asy. Max (%): geometric mean of the asymptotic max; for EC50: geometric mean EC50, read-out: Assay GMean EC50. The experiment is classed as cell-based. In a few lines: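 Transiently co-transfected (α2/β2/γ3 plasmids, electroporation) HEK293AD cells, plated 2 days in low-glucose DMEM+10% FBS, treated 20 min with compounds (11-point half-log dilutions). Lysates read by modified AlphaLISA capturing γ3 with pThr172 antibody detection. % effect relative to 30 μM HPE and DMSO; EC50 and Emax from curve fit.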

Molecules are shown by their SMILES.

T1 sequence (P54646 whole entry): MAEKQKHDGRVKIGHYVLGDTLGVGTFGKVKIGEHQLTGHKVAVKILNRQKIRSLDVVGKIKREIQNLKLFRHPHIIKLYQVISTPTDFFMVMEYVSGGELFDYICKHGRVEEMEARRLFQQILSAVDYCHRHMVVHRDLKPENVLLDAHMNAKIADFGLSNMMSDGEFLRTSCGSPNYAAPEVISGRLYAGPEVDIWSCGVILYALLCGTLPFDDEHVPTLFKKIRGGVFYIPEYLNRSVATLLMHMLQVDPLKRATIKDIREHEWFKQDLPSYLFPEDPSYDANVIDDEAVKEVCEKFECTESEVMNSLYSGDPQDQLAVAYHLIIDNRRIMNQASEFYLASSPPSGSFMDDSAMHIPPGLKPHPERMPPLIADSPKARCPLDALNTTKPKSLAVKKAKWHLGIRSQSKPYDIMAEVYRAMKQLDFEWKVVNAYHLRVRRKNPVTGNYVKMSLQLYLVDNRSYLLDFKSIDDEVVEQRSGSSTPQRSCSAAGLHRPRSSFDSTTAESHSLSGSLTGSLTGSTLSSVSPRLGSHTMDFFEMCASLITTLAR
T1 sequence (O43741 whole entry): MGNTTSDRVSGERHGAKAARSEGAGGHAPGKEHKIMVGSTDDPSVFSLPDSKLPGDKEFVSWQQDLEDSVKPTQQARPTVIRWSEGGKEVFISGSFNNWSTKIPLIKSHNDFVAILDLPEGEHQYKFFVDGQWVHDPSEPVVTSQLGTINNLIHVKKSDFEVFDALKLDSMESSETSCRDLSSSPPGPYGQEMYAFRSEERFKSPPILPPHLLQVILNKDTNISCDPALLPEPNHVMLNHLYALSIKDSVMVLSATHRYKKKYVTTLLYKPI
T1 sequence (Q9UGI9 whole entry): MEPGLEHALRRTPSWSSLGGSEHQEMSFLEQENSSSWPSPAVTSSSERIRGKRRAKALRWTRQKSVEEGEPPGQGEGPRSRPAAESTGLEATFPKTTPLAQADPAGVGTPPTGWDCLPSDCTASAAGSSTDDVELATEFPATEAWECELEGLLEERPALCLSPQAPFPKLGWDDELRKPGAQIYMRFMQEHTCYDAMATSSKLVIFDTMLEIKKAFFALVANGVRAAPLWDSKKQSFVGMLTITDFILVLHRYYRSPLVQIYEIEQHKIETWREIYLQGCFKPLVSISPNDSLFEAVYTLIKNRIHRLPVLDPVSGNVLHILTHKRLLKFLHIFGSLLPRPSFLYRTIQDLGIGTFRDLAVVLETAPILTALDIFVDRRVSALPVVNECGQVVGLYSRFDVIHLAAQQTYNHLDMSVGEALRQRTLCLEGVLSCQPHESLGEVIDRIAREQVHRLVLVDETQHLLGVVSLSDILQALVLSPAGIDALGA

With `CN1CCC(F)(C(=O)N2CC[C@@H](Nc3ncc4c(c3F)C(C)(c3cccc(Cl)c3F)CN(c3ncccc3F)C4=O)C2)CC1` (single isomer, unassigned) [compound 109], the Emax is 81.7% and the EC50 (in general, the concentration needed to bring the measured effect to its halfway point) was 76.2 nM.
Take `Cn1cc(F)c(N2C[C@](C)(c3cccc(Cl)c3F)c3c(cnc(NC4CN(C(=O)[C@@H]5CC5(F)F)C4)c3F)C2=O)n1` [compound 39, (4R)-4-(3-chloro-2-fluorophenyl)-6-({1-[(1S)-2,2-difluorocyclopropane-1-carbonyl]azetidin-3-yl}amino)-5-fluoro-2-(4-fluoro-1-methyl-1H-pyrazol-3-yl)-4-methyl-3,4-dihydro-2,7-naphthyridin-1(2H)-one]: the Emax was 91.2% and the concentration giving a half-maximal response (EC50) turned out to be 68.7 nM.
Taken in the same sequence, the figures for `CC1(c2cccc(Cl)c2F)CN(c2ccc(CO)cn2)C(=O)c2ccc(NC3CN(C(=O)N4C[C@@H]5C[C@H]4CO5)C3)c(F)c21` (single isomer, unassigned) [Example 37] were 163% and 19.1 nM.
Regarding `Cn1cc(F)c(N2CC(C)(c3cccc(Cl)c3F)c3c(ccc(NC4CN(CC(=O)N5CCOCC5)C4)c3F)C2=O)n1` (stereo not shown) [compound 91, 4-(3-chloro-2-fluorophenyl)-5-fluoro-2-(4-fluoro-1-methyl-1H-pyrazol-3-yl)-4-methyl-6-({1-[2-(morpholin-4-yl)-2-oxoethyl]azetidin-3-yl}amino)-3,4-dihydroisoquinolin-1(2H)-one,from P18 (ENANT-2)], the Emax is 99.7% and the concentration giving a half-maximal response (EC50) was found to be 168 nM.
In the same order, the values of `C[C@]1(c2cccc(Cl)c2F)CN(c2ncccc2F)C(=O)c2cnc(NC3CN(C(N)=O)C3)c(F)c21` [Example 19, 3-{[(5R)-5-(3-Chloro-2-fluorophenyl)-4-fluoro-7-(3-fluoropyridin-2-yl)-5-methyl-8-oxo-5,6,7,8-tetrahydro-2,7-naphthyridin-3-yl]amino}azetidine-1-carboxamide] are 31.3% and 87.2 nM.
In the same order, the values of `Cn1cc(F)c(N2C[C@](C)(c3cccc(Cl)c3F)c3c(cnc(NC4CN(C(=O)[C@H]5C[C@H]5F)C4)c3F)C2=O)n1` [compound 99, (4R)-4-(3-chloro-2-fluorophenyl)-5-fluoro-6-({1-[(1R,2R)-2-fluorocyclopropane-1-carbonyl]azetidin-3-yl}amino)-2-(4-fluoro-1-methyl-1H-pyrazol-3-yl)-4-methyl-3,4-dihydro-2,7-naphthyridin-1(2H)-one] are 49.7% and 70.2 nM.
Turning to `Cn1cc(F)c(N2C[C@](C)(c3cccc(Cl)c3F)c3c(cnc(NC4CN(C(=O)C(C)(O)C5CC5)C4)c3F)C2=O)n1` (single isomer, unassigned) [Example 10], the EC50 was found to be 21.3 nM and the “Assay GMean Asy. Max (%)” value turned out to be 89.6%.
In the case of `C[C@]1(c2cccc(Cl)c2F)CN(c2cc(F)c(CO)cc2F)C(=O)c2cnc(NC3CN(C(=O)[C@@H]4C[C@@H]4F)C3)c(F)c21` [compound 77, (4R)-4-(3-chloro-2-fluorophenyl)-2-[2,5-difluoro-4-(hydroxymethyl)phenyl]-5-fluoro-6-({1-[(1S,2S)-2-fluorocyclopropane-1-carbonyl]azetidin-3-yl}amino)-4-methyl-3,4-dihydro-2,7-naphthyridin-1(2H)-one], the Emax came out at 78.2% and the EC50 was found to be 38.4 nM.
Taken in the same sequence, the figures for `CC1(c2ccc(F)c(Cl)c2F)CN(c2ccc(N)cn2)C(=O)c2cnc(NC3CN(C(=O)[C@@H]4C[C@@H]4F)C3)c(F)c21` (single isomer, unassigned) [compound 102] were 51.4% and 25.9 nM.
In the case of `CN(C)C(=O)CN1CC(Nc2ccc3c(c2F)C(C)(c2cccc(Cl)c2F)CN(c2nn(C)cc2F)C3=O)C1` (stereo not shown) [compound 90, 2-(3-{[4-(3-chloro-2-fluorophenyl)-5-fluoro-2-(4-fluoro-1-methyl-1H-pyrazol-3-yl)-4-methyl-1-oxo-1,2,3,4-tetrahydroisoquinolin-6-yl]amino}azetidin-1-yl)-N,N-dimethylacetamide, from P18 (ENANT-2)], the Emax is 120% and the EC50 came out at 147 nM.
Turning to `CC1(c2cccc(Cl)c2F)CN(c2ccc3cncn3c2)C(=O)c2cnc(NC3CN(C(=O)[C@@H]4C[C@@H]4F)C3)nc21` (single isomer, unassigned) [compound 79], the Emax amounted to 121% and the concentration for a half-maximal effect (EC50) is 2830 nM.
On to `Cn1cc(F)c(N2C[C@](C)(c3cccc(Cl)c3F)c3c(cnc(NC4CN(C(=O)C(O)CC(F)(F)F)C4)c3F)C2=O)n1` (single isomer, unassigned) [compound 45], for which the EC50 worked out at 66.4 nM and the “Assay GMean Asy. Max (%)” value is listed as 100%.
Take `C[C@]1(c2cccc(Cl)c2F)CN(c2ccc(CO)cn2)C(=O)c2cnc(NC3CN(C(=O)[C@@H]4C[C@@H]4F)C3)c(F)c21` [compound 52, (4R)-4-(3-chloro-2-fluorophenyl)-5-fluoro-6-({1-[(1S,2S)-2-fluorocyclopropane-1-carbonyl]azetidin-3-yl}amino)-2-[5-(hydroxymethyl)pyridin-2-yl]-4-methyl-3,4-dihydro-2,7-naphthyridin-1(2H)-one]: the Emax came out at 65.4% and the EC50 worked out at 47.4 nM.
Taken in the same sequence, the figures for `Cn1cc(F)c(N2C[C@](C)(c3cccc(Cl)c3F)c3c(cnc(NC4CN(CC(=O)N5CCCC5)C4)c3F)C2=O)n1` [compound 65, (4R)-4-(3-chloro-2-fluorophenyl)-5-fluoro-2-(4-fluoro-1-methyl-1H-pyrazol-3-yl)-4-methyl-6-({1-[2-oxo-2-(pyrrolidin-1-yl)ethyl]azetidin-3-yl}amino)-3,4-dihydro-2,7-naphthyridin-1(2H)-one] were 83.4% and 55.1 nM.
